Measurements published in patent publication US8609610B2, “Inhibitors of the trypsin-like site of the proteasome and methods of use thereof” (Trustees of Dartmouth College, priority 2011, dated 2013).
“Also recorded” adds a separate entry of the source.

Legend:
[1] = target: T1, trypsin-like site of 26S proteasomes (Oryctolagus cuniculus, UniProt G1SWK8); assay: Inhibition of purified 26S proteasomes, substrate Ac-RLR-amc; type: biochemical, rabbit; conditions: 26S proteasomes from rabbit muscles
T1 construct: IC50 for sites in 26S proteasomes: Tr-L; other: purified 26S proteasomes; other: 26S proteasomes from rabbit muscles
T1 sequence (G1SWK8 1-271): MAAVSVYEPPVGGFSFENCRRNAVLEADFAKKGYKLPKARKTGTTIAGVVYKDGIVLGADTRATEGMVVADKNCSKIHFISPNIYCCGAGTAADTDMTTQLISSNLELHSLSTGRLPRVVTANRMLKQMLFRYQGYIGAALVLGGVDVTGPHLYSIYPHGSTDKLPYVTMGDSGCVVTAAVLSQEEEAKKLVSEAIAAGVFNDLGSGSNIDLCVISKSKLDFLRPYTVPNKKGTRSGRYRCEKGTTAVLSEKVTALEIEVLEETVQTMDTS

[2] = target: T2, trypsin-like sites (β2) of proteasome in MM cells (Homo sapiens, UniProt Q99436); assay: PROTEASOMEGLO assay of proteasome inhibition in MM cells; type: cell-based; conditions: NCI-H929 cells treated overnight
T2 construct: endogenous in cells; host or cells: NCI-H929, RPMI-8226 and other MM cell lines
T2 sequence (Q99436 44-277): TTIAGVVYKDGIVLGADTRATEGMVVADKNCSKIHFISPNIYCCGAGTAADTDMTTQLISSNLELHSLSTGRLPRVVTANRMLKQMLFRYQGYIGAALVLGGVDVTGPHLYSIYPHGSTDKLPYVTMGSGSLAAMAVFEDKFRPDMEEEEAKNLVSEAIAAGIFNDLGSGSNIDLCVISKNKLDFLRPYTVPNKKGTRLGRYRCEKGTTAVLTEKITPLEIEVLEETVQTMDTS
Protocol: Proteasome inhibition in MM cells was measured with luminogenic substrates using PROTEASOMEGLO assay (Promega). […] An aliquot of culture was pelleted and medium was removed and replaced with PBS. The resulting cell suspension was mixed with luminogenic substrates in the manufacturer-provided lysis/assay buffer. After 3 minutes mixing on an orbital shaker, the plate was incubated in the dark for additional 17 minutes, followed by the measurements of the luminescence, performed in triplicate for each substrate/data point. Data were analyzed as for purified proteasomes. […] Cells (1×10^6 per well of a 6-well plate) were incubated with the inhibitors for 4 hours at 37° C. and this was followed by a 2 hour incubation with 5 μM BODIPY-TMR-epoxomicin. Subsequently, the medium was removed and the cells were washed with PBS and harvested. […] The supernatant was collected and the protein concentration was determined by the Bradford assay, and used to normalize gel loading. The samples were analysed by SDS-PAGE and fluorescent densitometry as described for competition experiment in cell lysates. IC50 values were calculated from three independent experiments using […] PRISM software.

β2 and β2i sites = assay: MV-151 label-competition in extracts of RPMI-8226 MM cells; type: biochemical; conditions: extracts of RPMI-8226 cells, MV-151 probe
From the text: Multiple myeloma cells express constitutive proteasomes and immunoproteasomes, and substrates used for the measurement of activity were cleaved by both. To determine whether there were any differences in inhibition of constitutive proteasomes or immunoproteasomes by NC-002, NC-012, and NC-022, the fluorescent activity-based probe MV-151 (Verdoes, et al. (2006) Chem. Biol. 13:1217-1226) was used in a label-competition experiment. Extracts of RPMI-8226 MM cells (which express more immunoproteasomes than NCI-H929 cells) were treated first with the NC inhibitors and then with the MV-151 probe. This was followed by fractionation on SDS-PAGE to separate proteasome subunits and imaging to reveal those subunits labeled by the probe (i.e., unmodified by the inhibitors).

With `CC(=O)N[C@@H](CCCNC(=N)N)C(=O)N[C@@H](CC(C)C)C(=O)N[C@@H](CCCNC(=N)N)C(=O)[C@@]1(C)CO1` [NC-012, Ac-Arg-Leu-Arg-ek] the “proteasome inhibitory potential on purified 26S proteasomes” value [1] was “potent and specific inhibitors of the trypsin-like sites; also recorded: most potent and specific in the series”, the “inhibition of trypsin-like activity in live cells” value [2] was “much higher concentrations” and the “inhibition of constitutive (β2) versus immunoproteasome (β2i) trypsin-like sites” value (β2 and β2i sites) was “equipotent inhibitors of the trypsin-like sites of constitutive and immunoproteasomes”.
